Reference: patent US4129737A, “Process for the preparation of an 8-alkyl-5-oxo-5,8-dihydro-pyrido(2,3-d)pyrimidine-6-carboxylic acid” (priority 1972, dated 1978)
≈ marks a conversion by molar mass, not a printed value. Where two headings read alike, the source gives them in different places.

How the values were obtained:
Esch. coli. 54-127 OMS = experiment: Average MIC, solid medium (nutrient agar) dilution method; details: Escherichia coli, 18 h, read-out: minimum inhibitory concentration, average
Pr. vulgaris = experiment: Minimum inhibitory concentration by agar dilution, Pr. vulgaris; type: cell-based; details: Proteus vulgaris, 37° C., 18 hours, read-out: minimum inhibitory concentration (M.I.C.)
Description: (§1) (a) Trypticase soya medium (T.S.A.), which is very suitable for culturing the majority of microorganisms; it has the following composition:
(§2) (b) Ordinarily nutrient agar (N.A.), which is less rich in nutrients, corresponds to the following formulation: […]
(§3) Table I gives the minimum inhibitory concentrations (expressed in μg/cm^3) for the various microorganisms tested on each medium.
(§4) The products were tested on three Gram positive microorganisms (1 to 3) […] and on 10 Gram negative microorganisms (4 to 13).
(§5) Table (II) gives the minimum inhibitory concentrations of the compounds of Examples XII to XVI, determined on the agar medium, N.A., and expressed in μg/cm^3.

Arizona 6211 = experiment: Average MIC, solid medium (nutrient agar) dilution method; details: 18 h, read-out: minimum inhibitory concentration, average
Ps. aeruginosa A22 = experiment: as above; details: Pseudomonas aeruginosa, A22, 18 h, read-out: minimum inhibitory concentration, average
Klebs. pneumoniae 10.031 = experiment: as above; details: Klebsiella pneumoniae, 10.031, 18 h, read-out: minimum inhibitory concentration, average
Klebs. pneumoniae = experiment: Minimum inhibitory concentration by agar dilution, Klebs. pneumoniae; type: cell-based; details: Klebsiella pneumoniae, 37° C., 18 hours, read-out: minimum inhibitory concentration (M.I.C.)
Description: as §1, §2, §3, §4, §5

Bord. bronchiseptica = experiment: Minimum inhibitory concentration by agar dilution, Bord. bronchiseptica; type: cell-based; details: Bordetella bronchiseptica, 37° C., 18 hours, read-out: minimum inhibitory concentration (M.I.C.)
Description: as §1, §2, §3, §4, §5

S. enteritidis DANYZ = experiment: Average MIC, solid medium (nutrient agar) dilution method; details: Salmonella enterica, 18 h, read-out: minimum inhibitory concentration, average
Sh. sonnei = experiment: Minimum inhibitory concentration by agar dilution, Sh. sonnei; type: cell-based; details: Shigella sonnei, 37° C., 18 hours, read-out: minimum inhibitory concentration (M.I.C.)
Description: as §1, §2, §3, §4, §5

Pr. vulgaris 12-53 = experiment: Average MIC, solid medium (nutrient agar) dilution method; details: Proteus vulgaris, 1253, 18 h, read-out: minimum inhibitory concentration, average
[1] = Absorption and elimination after oral administration; type: in vivo
Esch. coli. Cho = experiment: Average MIC, solid medium (nutrient agar) dilution method; details: Escherichia coli, 18 h, read-out: minimum inhibitory concentration, average
Bord. bronch. 4617 = experiment: as above; details: 18 h, read-out: minimum inhibitory concentration, average
in vivo = details: dog, 2.5 mg/kg
Description: In an experiment involving a 20 kg dog, 50 mg of the compound of Example VIII, corresponding to 2.5 mg/kg, were administered by means of a probang. The urine of the animal was removed by catheterisation at the 3rd and at the 7th hour, and the anti-bacterial activity of these samples was measured, taking the compound administered as the reference product.

Pr. morganii A 236 = experiment: Average MIC, solid medium (nutrient agar) dilution method; details: Morganella morganii, A236, 18 h, read-out: minimum inhibitory concentration, average
rats = experiment: Oral toxicity in rats; type: in vivo; details: doses as high as 4 g per kilogram
Esch. coli. 95 I.S.M. = experiment: Average MIC, solid medium (nutrient agar) dilution method; details: Escherichia coli, 18 h, read-out: minimum inhibitory concentration, average
[2] = N.A. (nutrient agar, pH 6.8), Table I
[3] = T.S.A. (trypticase soya medium, pH 7.3)

CCn1cc(C(=O)O)c(=O)c2cnc(N3CCNCC3)nc21 [Example VIII, 2-Piperazino-5-oxo-8-ethyl-5,8-dihydro-pyrido(2,3-d)pyrimidine-6-carboxylicacid]
MIC (Esch. coli. 54-127 OMS): 5.66 µg/mL (≈ 18.7 µM) | MIC (Pr. vulgaris; [2]): 6.2 µg/mL (≈ 20.4 µM) | MIC (Pr. vulgaris; [3]): 1.6 µg/mL (≈ 5.27 µM) | MIC (Arizona 6211): 1.26 µg/mL (≈ 4.15 µM) | MIC (Ps. aeruginosa A22): 12.5 µg/mL (≈ 41.2 µM) | MIC (Klebs. pneumoniae 10.031): 1.88 µg/mL (≈ 6.2 µM) | MIC (Klebs. pneumoniae; [2]): 0.8 µg/mL (≈ 2.64 µM) | MIC (Klebs. pneumoniae; [3]): 1.6 µg/mL (≈ 5.27 µM) | MIC (Bord. bronchiseptica; [2]): 12.5 µg/mL (≈ 41.2 µM) | MIC (Bord. bronchiseptica; [3]): 50 µg/mL (≈ 165 µM) | MIC (S. enteritidis DANYZ): 1.2 µg/mL (≈ 3.96 µM) | MIC (Sh. sonnei; [2]): 0.8 µg/mL (≈ 2.64 µM) | MIC (Sh. sonnei; [3]): 0.8 µg/mL (≈ 2.64 µM) | MIC (Pr. vulgaris 12-53): 0.36 µg/mL (≈ 1.19 µM) | absorption [1]: absorbed rapidly | elimination [1]: eliminated principally in the urine | urinary concentrations relative to minimum inhibitory concentrations ([1]; even with low doses, majority of Gram negative microorganisms): very much greater than the minimum inhibitory concentrations | MIC (Esch. coli. Cho): 2.66 µg/mL (≈ 8.77 µM) | MIC (Bord. bronch. 4617): 75 µg/mL (≈ 247 µM) | urinary concentration at 7 hours relative to minimum inhibitory concentrations (in vivo): still very much greater than the minimum inhibitory concentrations | concentration at 3 h (in vivo; po): 185 µg/mL | concentration at 7 h (in vivo; po): 90 µg/mL | MIC (Pr. morganii A 236): 0.4 µg/mL (≈ 1.32 µM) | deaths (rats): no deaths were observed | MIC (Esch. coli. 95 I.S.M.): 5.14 µg/mL (≈ 16.9 µM)
